From patent US4713386A, “Tetrahydroazeto [2,1-a]isoquinolines and methods for treating depression” (McNeilab, Inc., priority 1986, dated 1987)

Test system: Mouse
Experiment: Mouse Tetrabenazine Antagonism Assay (TBZ 32 mg/kg i.p.; exploratory activity and reversal of ptosis)
Format: in vivo
Conditions: mice, (1:1) fumarate salt
Method: In this test, mice are injected with a test compound 30 min prior to the injection of 32 mg/kg i.p. of TBZ, a drug which decreases normal exploratory activity and induces ptosis. After 30 min. the mice are tested for two parameters: the presence of normal exploratory activity (EA) and reversal of ptosis (Pt). A control group of mice is given only 32 mg/kg i.p. of TBZ. The biological activity of the novel compounds of this invention may be understood by the representative, nonlimiting example, presented in Table I.

[1] = @ 3 mg/kg i.p., 30 min before 32 mg/kg i.p. TBZ

O=C(O)/C=C/C(=O)O.c1ccc([C@@H]2CN3CC[C@@H]3c3ccccc32)cc1 (relative stereo) [Example 1d, trans-1,4,5,9b-Tetrahydro-5-phenyl-2H-azeto[2,1-a]isoquinoline (E)-2-butenedioate]
ED50 (Mus musculus, ip, i.p., TBZ 32 mg/kg i.p.): 1.25 mg/kg
% inhibition EA (exploratory activity) [1]: 50%
% inhibition Pt (reversal of ptosis) [1]: 88%
